Tests used:
Assay type in all cases: in vivo
[1] = system: Cathepsin D (CTSD); test: Cathepsin D (CTSD) levels in treated G93A mice; conditions: 10 mg/kg, day 100
Description: We next investigated Cathepsin D (CTSD) expression and distribution in G93A mice, since its trafficking involves the retromer complex. In humans, CTSD maturation starts with a pre-pro-CTSD then converted to pro-CTSD (52 kDa) in the endoplasmic reticulum. Recycling of pro-CTSD and its downstream migration to acidic compartments involves CI-MPR and the retromer pathway. Pro-CTSD is further processed to an intermediate form in late endosomes (48 kDa), and finally converted to mature CTSD (34 kDa) in lysosomes. VPS35 inactivation[48] or VPS26 knockdown[21] affect CTSD maturation. We scored CTSD levels in lumbar SC extracts from vehicle-treated WT and vehicle- or 2a-treated G93A mice. […] We next analyzed CTSD levels and CTSD^+ puncta in MNs by confocal microscopy, observing their significant reduction in MNs of vehicle-treated G93A mice that was restored by treatment with compound 2a (Fig. 6f).
Fluorescence intensity levels of VPS35, VPS26, CI-MPR, Sortilin, CTSD and Ubiquitin were calculated using NHI-Image J software (US National Institutes of Health) according to the following protocol: stacks of confocal images were used to generate the maximal projections using the Leica Application Suite X (2.0.0.14332) software and then postprocessed by NHI-Image J to crop single NeuN^+ MNs from the ventral horn of the spinal cord. […] On this ROI, we measured mean fluoresce levels (MFI) of target proteins.

[2] = system: G93A mice; test: Daily treatment of G93A and WT mice, day 30 to day 100: tolerability, rotarod, histopathology
Experimental: We administered compound 2a (10 mg/kg, i.p.) daily to G93A and WT littermates between day 30 and day 100. […] We next assessed the pathological degeneration of fibers in sciatic nerves of G93A mice treated with compound 2a. We observed axonal degeneration, with a substantial reduction of myelinated nerve fibers in vehicle-treated G93A mice (Fig. 5a, b)[39]. […] Using Luxol Fast Blue (LFB) to label lipoproteins of the myelin sheath, we analyzed myelination.
Mice were maintained under pathogen-free conditions at San Raffaele Hospital mouse facility (Milan, Italy). All efforts were made to minimize animal suffering and to reduce the number of mice used in accordance with the European Communities Council Directive of 24 November 1986 (86/609/EEC). The Ethics Review Committee approved experimental protocols according guidelines from the Italian Ministry of Health and from the Institutional Animal Care and Use Committee of the San Raffaele Scientific Institute (protocol number 704/2015PR). Transgenic mutant SOD1 mice carrying the SOD1^G93A allele (strain B6SJL-TgN[SOD1G93A]1GUR)[75] were purchased from Jackson laboratories, while C57BL/6J mice, used for breeding and experimental purposes, were purchased from Charles River (Italy). Both transgenic and WT mice had food and water freely available in the home-cage. The holding room was on a 12-h light–dark cycle, the temperature of the room was 22 ± 0.2 °C. Starting from day 30 we intraperitoneally injected compound 2a (10 mg/Kg) or vehicle in G93A mice as well as in C57BL/6J mice for 70 days. Additional experiments were performed injecting mice from day 83 to day 103. An operator blind to the treatment performed injections and manipulation of mice. At the day of the sacrifice, mice received an overdose of anesthetic drugs and they were perfused via vascular system with saline followed by 70–80 ml 4% paraformaldehyde (PF) in PBS, pH 7.2 (Sigma–Aldrich). Spinal cords were coronally sliced at ~6-mm thickness and postfixed in 4% PF in PBS, pH 7.2 for 12 h at +4 °C. Tissues were cryoprotected in PBS 1X/30% Sucrose (Sigma–Aldrich), embedded in OCT inclusion media and stored at −80 °C before processing. Lumbar spinal cords were 12-µm sectioned, labelled and digital images were acquired every 330 µm in a region encompassing 2.4 mm of the lumbar spinal cord. We determined numbers of mice by preliminary results or literature precedent.
Motor activity of mice receiving compound 2a or vehicle was assessed on 50-, 60-, 70-, 80-, 90-, and 100-days-old animals. Briefly, mice were trained 1 min on a static rotor and 1 min at constant speed (4 rpm) for two times and then we ran two trials performed over two consecutive days (one per day). Each trial consisted of 6-test sessions with 15 min interval between sessions. For each session, we placed mice on an accelerating rotor (4–40 rpm) and the latency to fall was recorded, with a maximum limit for individual animal set at 600 seconds.
Quantification of nerves degeneration was done on sciatic nerves obtained from saline-perfused mice. Tissues were fixed in 2% buffered glutaraldehyde (Sigma–Aldrich), postfixed in 1% osmium tetroxide and cut to obtain 1 µm thick sections. We stained sections with toluidine blue and specimens were blindly examined by light microscopy using ×40 objective. For each nerve, we merged images to obtain the entire nerve cross section. Five consecutive nonoverlapping semi-thin sections from each sample were analyzed with NHI-Image J software (US National Institutes of Health). Degenerating fibers were counted in the entire nerve cross section.
Quantification of myelin was done on sagittal sciatic nerves by Luxol fast blue (LFB). Briefly, nerve sections were incubated the ethanol series before receiving 0.1% LFB overnight at 60 °C. Sections were then incubated 5 min in 0.05% lithium carbonate before receiving the ethanol series and xylene. Bright field microcopy of nerves at ×63 was used for quantification. […]

[3] = molecular target: VPS35 (Mus musculus, UniProt Q9EQH3+Q9QZ88); test: Western blot for VPS35 in spinal cord extracts of treated C57BL6J mice; design: from tissue; host or cells: mouse (lumbar) spinal cord, motor neurons; conditions: 10 mg/Kg intraperitoneally daily, 1 week
Experimental: Compounds 2a, 4a, and standard R55/1 (10 mg/Kg) were intraperitoneally injected in C57BL6J mice daily. After 1 week, mice were sacrificed, saline perfused to avoid CNS contamination by compounds in blood circulation, and SC protein extracts were assayed by WB. […] Therefore, phenyl-1,3-bis-guanylhydrazone 2a was selected as an early lead.

NC(N)=N/N=C/c1cccc(/C=N/N=C(N)N)c1 [compound 2a, phenyl-1,3-bis-guanylhydrazone]
CTSD levels and CTSD+ puncta in MNs (confocal) [1]: restored
levels of mature CTSD (WB, lumbar SC extracts) [1]: significantly increased
distress or pain ([2]; 10 mg/kg i.p. daily, day 30 to day 100): did not observe distress or undesirable pain
progression of motor deficits (latency to fall, rotarod) ([2]; G93A mice, 10 mg/kg i.p. daily, day 30 to day 100): significantly slowed down
reduction of degenerating fibers in sciatic nerves ([2]; G93A mice, 10 mg/kg, day 100): ~30%
MNs in ventral horns of lumbar SCs ([2]; G93A mice, 10 mg/kg, day 100, versus vehicle-treated G93A mice): more MNs
total number of Iba1+ cells ([2]; SC ventral horn, G93A mice, 10 mg/kg, day 100, versus vehicle): Neither CD14 levels nor the total number of Iba1^+ cells changed
body weight ([2]; WT and G93A mice, 10 mg/kg i.p. daily, day 30 to day 100): slight, but not significant reduction of body weight
locomotion performances ([2]; WT mice, 10 mg/kg i.p. daily, rotarod): did not observe alterations of locomotion performances
CD14 levels ([2]; lumbar SCs, G93A mice, 10 mg/kg, day 100, versus vehicle): Neither CD14 levels nor the total number of Iba1^+ cells changed
integrity of myelin (MBP, NF-M labelling) ([2]; sciatic nerves, G93A mice): preserved the integrity of myelin
demyelination (Luxol Fast Blue) ([2]; sciatic nerves, G93A mice, versus vehicle-treated G93A mice): substantial reduction of demyelination
VPS35 levels in SC extracts [3]: significantly increased
